Results published in patent US4677100A, “Cephalosporin derivatives” (Banyu Pharmaceutical Co., Ltd., priority 1984, dated 1987).
≈ marks a conversion by molar mass, not a printed value. Read-outs that look alike come from different tables or passages of the source.

What was measured:
P. aeruginosa AK109 = test: MIC, agar plate dilution method; format: cell-based, Pseudomonas aeruginosa; conditions: for MIC: Pseudomonas aeruginosa
Summary of the method: (§1)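 Testing used Sensitivity Disk Agar plates containing graded compound levels and inoculated at 10^6 CFU/ml. Reference drugs cefotaxime and ceftazidime were tested in parallel, and results are given as MIC (μg/ml).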

P. aeruginosa AKR17 = test: MIC, agar plate dilution method; format: cell-based, Pseudomonas aeruginosa; conditions: for MIC: Pseudomonas aeruginosa
Summary of the method: as §1

E. coli Juhl = test: treatment of experimental infection of mice; format: in vivo; conditions: for ED50: Escherichia coli
Gram-negative bacteria = conditions: background of the art; cited from earlier work
P. maltophilia IID 1275 = test: MIC, agar plate dilution method; format: cell-based, Pseudomonas maltophilia; conditions: Stenotrophomonas maltophilia
Summary of the method: as §1

P. aeruginosa D15 = test: treatment of experimental infection of mice; format: in vivo; conditions: for ED50: Pseudomonas aeruginosa
P. cepacia 23 = test: MIC, agar plate dilution method; format: cell-based, Pseudomonas cepacia
Summary of the method: as §1

K. pneumoniae No. 42 = test: MIC, agar plate dilution method; format: cell-based; conditions: Klebsiella pneumoniae
Summary of the method: as §1

P. vulgaris No. 33 = test: MIC, agar plate dilution method; format: cell-based; conditions: Proteus vulgaris
Summary of the method: as §1

E. coli ML1410/Rte16 = test: MIC, agar plate dilution method; format: cell-based; conditions: for MIC: Escherichia coli, ML1410/RTE16, read-out: Minimum Inhibitory Concentration
Summary of the method: (§2)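 MIC values (μg/ml) were determined by agar plate dilution on Sensitivity Disk Agar with an inoculum of 10^6 CFU/ml. Cefotaxime and ceftazidime were run alongside as comparators.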

E. cloaceae Nek 39 = test: MIC, agar plate dilution method; format: cell-based; conditions: read-out: Minimum Inhibitory Concentration
Summary of the method: as §1

E. coli W3630/Rms213 = test: MIC, agar plate dilution method; format: cell-based; conditions: for MIC: Escherichia coli, W3630/RMS213, read-out: Minimum Inhibitory Concentration
Summary of the method: as §2

S. aureus JS-1 = test: MIC, agar plate dilution method; format: cell-based; conditions: Staphylococcus aureus
Summary of the method: as §1

E. coli CSH2 = test: MIC, agar plate dilution method; format: cell-based; conditions: 10^6 CFU/ml, Sensitivity Disk Agar; for MIC: Escherichia coli, read-out: Minimum Inhibitory Concentration
Summary of the method: as §1

S. aureus NIHJJC-1 = test: MIC, agar plate dilution method; format: cell-based; conditions: Staphylococcus aureus
Summary of the method: as §1

E. coli W3630/Rms212 = test: MIC, agar plate dilution method; format: cell-based; conditions: for MIC: Escherichia coli, W3630/RMS212, read-out: Minimum Inhibitory Concentration
Summary of the method: as §2

P. vulgaris OB1043 = test: MIC, agar plate dilution method; format: cell-based; conditions: Proteus vulgaris
Summary of the method: as §1

S. marcescens No. 16-2 = test: MIC, agar plate dilution method; format: cell-based; conditions: Serratia marcescens
Summary of the method: as §1

E. coli CSH = test: MIC, agar plate dilution method; format: cell-based; conditions: for MIC: Escherichia coli, read-out: Minimum Inhibitory Concentration
Summary of the method: as §2

P. mirabilis JY10 = test: MIC, agar plate dilution method; format: cell-based; conditions: Proteus mirabilis
Summary of the method: as §1

E. coli NIHJJC-2 = test: MIC, agar plate dilution method; format: cell-based; conditions: for MIC: Escherichia coli
Summary of the method: as §1

C. freundii No. 7 = test: MIC, agar plate dilution method; format: cell-based; conditions: Citrobacter freundii
Summary of the method: as §1

A. calcoaceticus No. 14 = test: MIC, agar plate dilution method; format: cell-based; conditions: Acinetobacter calcoaceticus
Summary of the method: as §1

E. coli C/Rms149 = test: MIC, agar plate dilution method; format: cell-based; conditions: for MIC: Escherichia coli, read-out: Minimum Inhibitory Concentration
Summary of the method: as §2

S. aureus Smith = test: treatment of experimental infection of mice; format: in vivo; conditions: for ED50: Staphylococcus aureus
[1] = system: Gram-positive bacteria and Gram-negative bacteria; test: antibacterial activity, general statement; format: cell-based; conditions: sensitive and resistant bacteria
Summary of the method: as §1

With `CC(C)(O/N=C(\C(=O)N[C@@H]1C(=O)N2C(C(=O)[O-])=C(C[n+]3ccccc3)CS[C@H]12)c1csc(N)n1)C(=O)O` [Ceftazidime, reference compound] as the molecule, how does the MIC (P. aeruginosa AK109; AK109, read-out: Minimum Inhibitory Concentration) read?
The MIC was 0.39 µg/mL (≈ 0.714 µM).

What about the MIC (P. aeruginosa AKR17; AKR17, read-out: Minimum Inhibitory Concentration) of the same molecule?
Its MIC is greater than 25 µg/mL.

What about the ED50 (E. coli Juhl) of the same molecule?
The ED50 was 0.33 mg/kg.

What about the “antibacterial activity (in words)” value (Gram-negative bacteria) of the same molecule?
Its value is “the most excellent cephalosporin derivative against Gram-negative bacteria”.

And the MIC (P. maltophilia IID 1275; IID1275, read-out: Minimum Inhibitory Concentration)?
Its MIC is greater than 25 µg/mL.

And the ED50 (P. aeruginosa D15; D15)?
The ED50 was 38 mg/kg.

And the MIC (P. cepacia 23; Burkholderia cepacia, 23, read-out: Minimum Inhibitory Concentration)?
Its MIC is 0.39 µg/mL (≈ 0.714 µM).

What about the MIC (K. pneumoniae No. 42; NO.42, read-out: Minimum Inhibitory Concentration) of the same molecule?
Its MIC is 0.39 µg/mL (≈ 0.714 µM).

What about the MIC (P. vulgaris No. 33; NO.33, read-out: Minimum Inhibitory Concentration) of the same molecule?
Its MIC is no more than 0.05 µg/mL.

And the “Minimum Inhibitory Concentration” value (E. coli ML1410/Rte16; E. coli ML1410/Rte16, 10^6 CFU/ml, Sensitivity Disk Agar)?
Its value is 0.20 µg/mL.

What about the MIC (E. coli ML1410/Rte16) of the same molecule?
The MIC was 0.2 µg/mL (≈ 0.366 µM).

And the MIC (E. cloaceae Nek 39)?
Its MIC is 0.78 µg/mL (≈ 1.43 µM).

And the “Minimum Inhibitory Concentration” value (E. coli W3630/Rms213; E. coli W3630/Rms213, 10^6 CFU/ml, Sensitivity Disk Agar)?
Its value is 0.20 µg/mL.

And the MIC (E. coli W3630/Rms213)?
Its MIC is 0.2 µg/mL (≈ 0.366 µM).

And the MIC (S. aureus JS-1; JS1, read-out: Minimum Inhibitory Concentration)?
Its MIC is greater than 25 µg/mL.

What about the “Minimum Inhibitory Concentration” value (E. coli CSH2) of the same molecule?
The value was 0.1 µg/mL.

What about the MIC (E. coli CSH2) of the same molecule?
Its MIC is 0.1 µg/mL (≈ 0.183 µM).

And the MIC (S. aureus NIHJJC-1; NIHJJC1, read-out: Minimum Inhibitory Concentration)?
Its MIC is 3.12 µg/mL (≈ 5.71 µM).

And the “Minimum Inhibitory Concentration” value (E. coli W3630/Rms212; E. coli W3630/Rms212, 10^6 CFU/ml, Sensitivity Disk Agar)?
The value was 0.20 µg/mL.

What about the MIC (E. coli W3630/Rms212) of the same molecule?
The MIC was 0.2 µg/mL (≈ 0.366 µM).

And the MIC (P. vulgaris OB1043; OB1043, read-out: Minimum Inhibitory Concentration)?
Its MIC is no more than 0.05 µg/mL.

And the MIC (S. marcescens No. 16-2; NO.162, read-out: Minimum Inhibitory Concentration)?
The MIC was 1.56 µg/mL (≈ 2.85 µM).

And the “Minimum Inhibitory Concentration” value (E. coli CSH; E. coli CSH, 10^6 CFU/ml, Sensitivity Disk Agar)?
Its value is 0.10 µg/mL.

What about the MIC (E. coli CSH) of the same molecule?
Its MIC is 0.1 µg/mL (≈ 0.183 µM).

And the MIC (P. mirabilis JY10; JY10, read-out: Minimum Inhibitory Concentration)?
The MIC was no more than 0.05 µg/mL.

And the “Minimum Inhibitory Concentration” value (E. coli NIHJJC-2; E. coli NIHJJC-2, 10^6 CFU/ml, Sensitivity Disk Agar)?
The value was 0.1 µg/mL.

And the MIC (E. coli NIHJJC-2; NIHJJC2, read-out: Minimum Inhibitory Concentration)?
The MIC was 0.1 µg/mL (≈ 0.183 µM).

And the MIC (C. freundii No. 7; NO.7, read-out: Minimum Inhibitory Concentration)?
The MIC was 1.56 µg/mL (≈ 2.85 µM).

What about the MIC (A. calcoaceticus No. 14; NO.14, read-out: Minimum Inhibitory Concentration) of the same molecule?
Its MIC is 6.25 µg/mL (≈ 11.4 µM).

And the “Minimum Inhibitory Concentration” value (E. coli C/Rms149; E. coli C/Rms149, 10^6 CFU/ml, Sensitivity Disk Agar)?
Its value is 0.20 µg/mL.

What about the MIC (E. coli C/Rms149) of the same molecule?
The MIC was 0.2 µg/mL (≈ 0.366 µM).

And the ED50 (S. aureus Smith)?
Its ED50 is 11 mg/kg.

Which results are given for `CON=C(C(=O)NC1C(=O)N2C(C(=O)[O-])=C(C[N+]3(C)Cc4cc(O)c(O)cc4C3)CSC12)c1csc(N)n1` (stereo not shown) [Ex. 4-D, 7-[(Z)-2-(2-aminothiazol-4-yl)-2-methoxyiminoacetamido]-3-(5,6-dihydroxy-2-methyl-2-isoindolinium)methyl-3-cephem-4-carboxylate]?
antibacterial activity relative to the compound of Reference Example (P. aeruginosa AK109; Pseudomonas aeruginosa AK109): at least 16 times; MIC (P. aeruginosa AK109; P. aeruginosa AK109, 10^6 CFU/ml, Sensitivity Disk Agar, read-out: Minimum Inhibitory Concentration): 0.1 µg/mL (≈ 0.178 µM); antibacterial activity relative to the compound of Reference Example (P. aeruginosa AKR17; Pseudomonas aeruginosa AKR-17, resistant to all cephalosporins including Ceftazidime): at least 32 times; MIC (P. aeruginosa AKR17; P. aeruginosa AKR17, 10^6 CFU/ml, Sensitivity Disk Agar, read-out: Minimum Inhibitory Concentration): 0.78 µg/mL (≈ 1.39 µM); antibacterial activity (in words) [1]: particularly strong antibacterial activities; ED50 (E. coli Juhl; mice infected with E. coli Juhl, read-out: ED50): 0.12 mg/kg; efficacy relative to Ceftazidime (E. coli Juhl; experimental infections of mice caused by E. coli Juhl): about twice as high; MIC (P. maltophilia IID 1275; IID1275, P. maltophilia IID 1275, 10^6 CFU/ml, Sensitivity Disk Agar, read-out: Minimum Inhibitory Concentration): 25 µg/mL (≈ 44.6 µM); ED50 (P. aeruginosa D15; mice infected with P. aeruginosa D15, read-out: ED50): 14 mg/kg; efficacy relative to Ceftazidime (P. aeruginosa D15; experimental infections of mice caused by P. aeruginosa D15): about twice as high; MIC (P. cepacia 23; Burkholderia cepacia, P. cepacia 23, 10^6 CFU/ml, Sensitivity Disk Agar, read-out: Minimum Inhibitory Concentration): 0.2 µg/mL (≈ 0.357 µM); antibacterial activity relative to the compound of Reference Example (P. cepacia 23; Pseudomonas cepacia 23): at least 32 times; MIC (K. pneumoniae No. 42; K. pneumoniae No. 42, 10^6 CFU/ml, Sensitivity Disk Agar, read-out: Minimum Inhibitory Concentration): 0.2 µg/mL (≈ 0.357 µM); MIC (P. vulgaris No. 33; P. vulgaris No. 33, 10^6 CFU/ml, Sensitivity Disk Agar, read-out: Minimum Inhibitory Concentration): 0.78 µg/mL (≈ 1.39 µM); MIC (E. coli ML1410/Rte16): 0.1 µg/mL (≈ 0.178 µM); MIC (E. cloaceae Nek 39; E. cloaceae Nek 39, 10^6 CFU/ml, Sensitivity Disk Agar): ≤ 0.05 µg/mL; MIC (E. coli W3630/Rms213): 0.78 µg/mL (≈ 1.39 µM); MIC (S. aureus JS-1; JS1, S. aureus JS-1, 10^6 CFU/ml, Sensitivity Disk Agar, read-out: Minimum Inhibitory Concentration): 25 µg/mL (≈ 44.6 µM); MIC (E. coli CSH2): 0.2 µg/mL (≈ 0.357 µM); MIC (S. aureus NIHJJC-1; NIHJJC1, S. aureus NIHJJC-1, 10^6 CFU/ml, Sensitivity Disk Agar, read-out: Minimum Inhibitory Concentration): 6.25 µg/mL (≈ 11.1 µM); MIC (E. coli W3630/Rms212): ≤ 0.05 µg/mL; MIC (P. vulgaris OB1043; P. vulgaris OB1043, 10^6 CFU/ml, Sensitivity Disk Agar, read-out: Minimum Inhibitory Concentration): 3.12 µg/mL (≈ 5.57 µM); MIC (S. marcescens No. 16-2; NO.162, S. marcescens No. 16-2, 10^6 CFU/ml, Sensitivity Disk Agar, read-out: Minimum Inhibitory Concentration): 6.25 µg/mL (≈ 11.1 µM); MIC (E. coli CSH): 1.56 µg/mL (≈ 2.78 µM); MIC (P. mirabilis JY10; P. mirabilis JY10, 10^6 CFU/ml, Sensitivity Disk Agar, read-out: Minimum Inhibitory Concentration): 0.39 µg/mL (≈ 0.696 µM); MIC (E. coli NIHJJC-2; NIHJJC2, E. coli NIHJJC-2, 10^6 CFU/ml, Sensitivity Disk Agar, read-out: Minimum Inhibitory Concentration): ≤ 0.05 µg/mL; MIC (C. freundii No. 7; C. freundii No. 7, 10^6 CFU/ml, Sensitivity Disk Agar, read-out: Minimum Inhibitory Concentration): 6.25 µg/mL (≈ 11.1 µM); antibacterial activity relative to the compound of Reference Example (A. calcoaceticus No. 14): at least 32 times; MIC (A. calcoaceticus No. 14; A. calcoaceticus No. 14, 10^6 CFU/ml, Sensitivity Disk Agar, read-out: Minimum Inhibitory Concentration): 0.2 µg/mL (≈ 0.357 µM); MIC (E. coli C/Rms149): 0.1 µg/mL (≈ 0.178 µM); ED50 (S. aureus Smith; mice infected with S. aureus Smith, read-out: ED50): 6.2 mg/kg; efficacy relative to Ceftazidime (S. aureus Smith; experimental infections of mice caused by S. aureus Smith): about twice as high
